The results in this text go back to patent publication US8916702B2 (priority 2012, dated 2014).

SMILES strings stand for the structures. pEC50: −log10 of the molar value. Like-named read-outs stand apart in the source and are kept apart here.

The test system of this assay is HCV pseudoparticles (genotype 1a HCV E1 and E2 envelope, H77C isolate). Put plainly: microbe, parasite or virus in culture. In kind it is cell-based. The conditions noted are these: Hepatitis C virus.
Setting [1] is: Huh-7, 48 h, HCV pseudoparticle infection of Huh7 cells, luciferase 2 days after infection, average of duplicates.
The mark [2] stands for this setting: Huh-7, 48 h, read-out: Activity (EC50 class), HCV pseudoparticle infection of Huh7 cells, luciferase 2 days after infection, EC50 expressed as class A/B.
The mark [3] stands for this setting: Huh-7, read-out: Activity (EC50 class), HCV pseudoparticles (genotype 1a, H77C) in Huh7 cells, EC50 expressed as class A/B.
Setting [4] is: Huh-7, 48 h, read-out: Activity (EC50 class), HCV pseudoparticles, Huh7 cells, luciferase 2 days after infection, average of duplicates.
Where [5] appears, read: Huh-7, 48 h, HCV pseudoparticles (genotype 1a, H77C) in Huh7 cells, average of duplicate, luciferase 2 days after infection.

Turning to `COC(=O)[C@H](CNC(=O)C(=O)NCC1CCCN(C(=O)OC(C)(C)C)C1)NC(=O)c1ccc(Nc2nc(NC3(c4ccc(Cl)cc4)CC3)nc(OCC(F)(F)F)n2)cc1` (stereo partly shown) [Compound 1452], the pEC50 under setting [1] was 8.74 and the pEC50 under setting [2] was 8.00 to 11.00. With `COC(=O)[C@H](CNC(=O)C(=O)Nc1ccc(CN2CCS(=O)(=O)CC2)cc1)NC(=O)c1ccc(Nc2nc(NC3(c4ccc(Cl)cc4)CC3)nc(OCC(F)(F)F)n2)cc1` [Compound 3194], under setting [3], the pEC50 was 8.00 to 11.00. On to `O=C(NC[C@H](NC(=O)c1ccc(Nc2nc(NC3(c4ccc(Cl)cc4)CC3)nc(OCC(F)(F)F)n2)cc1)C(=O)O)C(=O)NC1CCCC(O)C1` (stereo partly shown) [Compound 1086], for which the pEC50 under setting [2] was 8.00 to 11.00. In the case of `CC(C)(CNC(=O)C(=O)Nc1ccc(CNC(N)=O)cc1)CNC(=O)c1ccc(Nc2nc(NC3(c4ccc(Cl)cc4)CC3)nc(OCC(F)(F)F)n2)cc1` [Compound 3671], under setting [4], the pEC50 is 8.00 to 11.00. With `C[C@H]1[C@@H](NC(=O)C(=O)NCC[C@H](NC(=O)c2ccc(Nc3nc(NC4(c5ccc(Cl)cc5)CC4)nc(OCC(F)(F)F)n3)cc2)C(=O)O)C[C@H]2C[C@@H]1C2(C)C` [Compound 1123], the pEC50 under setting [2] is 8.00 to 11.00. With `O=C(NC[C@H](NC(=O)c1ccc(Nc2nc(NC3(c4ccc(Cl)cc4)CC3)nc(OCC(F)(F)F)n2)cc1)C(=O)Cl)C(=O)Nc1cccc(Oc2ccccn2)c1` [Compound 3781], the negative logarithm of the EC50 (pEC50) under setting [4] was 8.00 to 11.00.

In the case of `COc1ccc2nc(NC(=O)C(=O)NCC(C)(C)CNC(=O)c3ccc(Nc4nc(NC5(c6ccc(Cl)cc6)CC5)nc(OCC(F)(F)F)n4)cc3)sc2c1` [Compound 3816], the negative-log EC50 (pEC50) under setting [4] was 8.00 to 11.00.

As for `CC(CNC(=O)C(=O)N1CCc2ccccc2C1)CNC(=O)c1ccc(Nc2nc(NC3(c4ccc(Cl)cc4)CC3)nc(OCC(F)(F)F)n2)cc1` (stereo not shown) [Compound 3471], the pEC50 under setting [3] was 8.00 to 11.00.

For the molecule `Cc1ccc(NC(=O)C(=O)NC(C)(C)CNC(=O)c2ccc(Nc3nc(NC4(c5ccc(Cl)cc5)CC4)nc(OCC(F)(F)F)n3)cc2)cc1Cl` [Compound 3441], under setting [3], the pEC50 is 8.00 to 11.00.

With `COC(=O)[C@@H](CCNC(=O)C(=O)Nc1ccccc1-c1ccccc1)NC(=O)c1ccc(Nc2nc(NC3(c4ccc(Cl)cc4)CC3)nc(OCC(F)(F)F)n2)cc1` [Compound 1528], the pEC50 under setting [2] was 8.00 to 11.00. For the molecule `O=C(NC[C@H](NC(=O)c1ccc(Nc2nc(NC3(c4ccc(Cl)cc4)CC3)nc(OCC(F)(F)F)n2)cc1)C(=O)Cl)C(=O)Nc1ccc(Cl)nc1` [Compound 3739], the pEC50 under setting [4] was 8.00 to 11.00. `N#Cc1ccc(-c2ccc(NC(=O)C(=O)NC/C(=N/C(=O)c3ccc(Nc4nc(NC5(c6ccc(Cl)cc6)CC5)nc(OCC(F)(F)F)n4)cc3)C(=O)O)cc2)cc1` [Compound 3170]: the pEC50 by setting is: under setting [5], 9.20; under setting [3], 8.00 to 11.00. Consider `CC(C)(CNC(=O)C(=O)Nc1ccccc1C#N)CNC(=O)c1ccc(Nc2nc(NC3(c4ccc(Cl)cc4)CC3)nc(OCC(F)(F)F)n2)cc1` [Compound 3385], for which the negative-log EC50 (pEC50) under setting [3] is 8.00 to 11.00. As for `COC(=O)[C@H](CCNC(=O)C(=O)NCCc1cccc(F)c1)NC(=O)c1ccc(Nc2nc(NC3(c4ccc(Cl)cc4)CC3)nc(OCC(F)(F)F)n2)cc1` [Compound 1312], the pEC50 under setting [2] is 8.00 to 11.00.

Take `CC(C)(CNC(=O)C(N)=O)CNC(=O)c1ccc(Nc2nc(NC3(c4ccc(Cl)cc4)CC3)nc(OCC(F)(F)F)n2)c(F)c1` [Compound 3386]: under setting [3], the pEC50 is 8.00 to 11.00. With `CCC1(CC)CC1CNC(=O)C(=O)NC[C@H](NC(=O)c1ccc(Nc2nc(NC3(c4ccc(Cl)cc4)CC3)nc(OCC(F)(F)F)n2)cc1)C(=O)OC` (stereo partly shown) [Compound 1459], the pEC50 under setting [2] was 8.00 to 11.00. Same read-out and setting: under `O=C(NC[C@H](NC(=O)c1ccc(Nc2nc(NC3(c4ccc(Cl)cc4)CC3)nc(OCC(F)(F)F)n2)cc1)C(=O)O)C(=O)NC1CCCC1` [Compound 1037] stands 8.00 to 11.00. `Cc1ccc(NC(=O)C(=O)NCC(C)(C)CNC(=O)c2ccc(Nc3nc(NC4(c5ccc(Cl)cc5)CC4)nc(OCc4ccc(C(C)C)cc4)n3)cc2)cc1` [Compound 3839]: the pEC50 by setting is: (Huh-7, 48 h, HCV pseudoparticles, Huh7 cells, luciferase 2 days after infection, average of duplicates) 10.11; under setting [4], 8.00 to 11.00. Regarding `O=C(NCc1cc(F)ccc1F)C(=O)NC[C@H](NC(=O)c1ccc(Nc2nc(NC3(c4ccc(Cl)cc4)CC3)nc(OCC(F)(F)F)n2)cc1)C(=O)O` [Compound 1169], under setting [2], the pEC50 is 8.00 to 11.00.

With `CC(C)(CNC(=O)C(=O)Nc1nccs1)CNC(=O)c1ccc(Nc2nc(NC3(c4ccc(Cl)cc4)CC3)nc(OCC(F)(F)F)n2)cc1` [Compound 1547], the pEC50 was 10.22 under setting [1] and 8.00 to 11.00 under setting [2]. Turning to `COC(=O)[C@H](CNC(=O)C(=O)NCc1cccc(F)c1F)NC(=O)c1ccc(Nc2nc(NC3(c4ccc(Cl)cc4)CC3)nc(OCC(F)(F)F)n2)cc1` [Compound 1148], the pEC50 under setting [2] is 8.00 to 11.00. Turning to `CN(CCCN(C)C(=O)c1ccc(Nc2nc(NC3(c4ccc(Cl)cc4)CC3)nc(OCC(F)(F)F)n2)cc1)C(=O)C(=O)Nc1ccccc1` [Compound 3428], the pEC50 under setting [3] was 8.00 to 11.00. On to `COC(=O)[C@H](CNC(=O)C(=O)Nc1cccc(OCc2ccccc2)c1)NC(=O)c1ccc(Nc2nc(NC3(c4ccc(Cl)cc4)CC3)nc(OCC(F)(F)F)n2)cc1` [Compound 3686], for which, under setting [4], the pEC50 is 8.00 to 11.00. As for `COC(=O)[C@H](CNC(=O)C(=O)Nc1ccc(-c2ccno2)cc1)NC(=O)c1ccc(Nc2nc(NC3(c4ccc(Cl)cc4)CC3)nc(OCC(F)(F)F)n2)cc1` [Compound 3199], the pEC50 under setting [3] was 8.00 to 11.00. Turning to `COC(=O)[C@H](CCNC(=O)C(=O)Nc1cccc(-c2c[nH]cn2)c1)NC(=O)c1ccc(Nc2nc(NC3(c4ccc(Cl)cc4)CC3)nc(OCC(F)(F)F)n2)cc1` [Compound 3608], the pEC50 under setting [4] was 8.00 to 11.00.

Regarding `COC(=O)C(CNC(=O)C(=O)NC1CCC(O)CC1)NC(=O)c1ccc(Nc2nc(NC3(c4ccc(Cl)cc4)CC3)nc(OCC(F)(F)F)n2)cc1` (stereo not shown) [Compound 1048], the pEC50 under setting [2] is 8.00 to 11.00.

On to `COC(=O)[C@H](CCNC(=O)C(=O)Nc1ccc(Cn2cccn2)cc1)NC(=O)c1ccc(Nc2nc(NC3(c4ccc(Cl)cc4)CC3)nc(OCC(F)(F)F)n2)cc1` [Compound 3312], for which the pEC50 under setting [3] is 8.00 to 11.00.

For `COC(=O)[C@H](CCNC(=O)C(=O)N[C@@H](N)C1CC1)NC(=O)c1ccc(Nc2nc(NC3(c4ccc(Cl)cc4)CC3)nc(OCC(F)(F)F)n2)cc1` [Compound 1392], the pEC50 under setting [1] was 9.85 and the pEC50 under setting [2] is 8.00 to 11.00. As to `COC(=O)/C(CCNC(=O)C(=O)Nc1ccc(-n2nnnc2C)cc1)=N\C(=O)c1ccc(Nc2nc(NC3(c4ccc(Cl)cc4)CC3)nc(OCC(F)(F)F)n2)cc1` [Compound 3135], the pEC50 under setting [5] was 8.43 and the negative logarithm of the EC50 (pEC50) under setting [3] was 8.00 to 11.00.

With `C=Cc1cccc(NC(=O)C(=O)NCC(C)(C)CNC(=O)c2ccc(Nc3nc(NC4(c5ccc(Cl)cc5)CC4)nc(OCC(F)(F)F)n3)cc2)c1` [Compound 3670], the pEC50 under setting [4] is 8.00 to 11.00. For the molecule `COC(=O)[C@H](CCNC(=O)C(=O)Nc1ccc(N2CCN(Cc3ccccc3)CC2)cc1)NC(=O)c1ccc(Nc2nc(NC3(c4ccc(Cl)cc4)CC3)nc(OCC(F)(F)F)n2)cc1` [Compound 3131], the negative-log EC50 (pEC50) under setting [3] is 8.00 to 11.00. On the same count and under the same terms, under `CC(C)(CNC(=O)C(=O)Nc1ccccc1N1CCCCC1)CNC(=O)c1ccc(Nc2nc(NC3(c4ccc(Cl)cc4)CC3)nc(OCC(F)(F)F)n2)cc1` [Compound 3016] stands 8.00 to 11.00; under `COC(=O)[C@@H](CCNC(=O)C(=O)Nc1cccc(C(=O)c2ccccc2)c1)NC(=O)c1ccc(Nc2nc(NC3(c4ccc(Cl)cc4)CC3)nc(OCC(F)(F)F)n2)cc1` [Compound 3576], 8.00 to 11.00. In the case of `CC(C)(C)c1cccc(NC(=O)C(=O)NCC[C@H](NC(=O)c2ccc(Nc3nc(NC4(c5ccc(Cl)cc5)CC4)nc(OCC(F)(F)F)n3)cc2)C(=O)O)c1` [Compound 3629], the pEC50 under setting [4] is 8.00 to 11.00. Regarding `Cc1cc(NC(=O)C(=O)N2CCCC(CNC(=O)c3ccc(Nc4nc(NC5(c6ccc(Cl)cc6)CC5)nc(OCC(F)(F)F)n4)cc3)C2)no1` (stereo not shown) [Compound 3486], the pEC50 is 9.49 under setting [5] and 8.00 to 11.00 under setting [3]. On to `NC(=O)C(=O)N1CCCC(C(NC(=O)c2ccc(Nc3nc(NC4(c5ccc(Cl)cc5)CC4)nc(OCC(F)(F)F)n3)cc2)C(=O)O)C1` (stereo not shown) [Compound 1018, 2-(1-(2-amino-2-oxoacetyl)piperidin-3-yl)-2-(4-(4-(1-(4-chlorophenyl)cyclopropylamino)-6-(2,2,2-trifluoroethoxy)-1,3,5-triazin-2-ylamino)benzamido)acetic acid], for which, under setting [2], the negative-log EC50 (pEC50) was 8.00 to 11.00. For the molecule `CC(C)(CNC(=O)C(=O)Nc1ccc(Cl)cc1C#N)CNC(=O)c1ccc(Nc2nc(NC3(c4ccc(Cl)cc4)CC3)nc(OCC(F)(F)F)n2)cc1` [Compound 3384], the pEC50 under setting [3] was 8.00 to 11.00.

On to `COCc1ccc(NC(=O)C(=O)NCC[C@H](NC(=O)c2ccc(Nc3nc(NC4(c5ccc(Cl)cc5)CC4)nc(OCC(F)(F)F)n3)cc2)C(=O)OC)cc1` [Compound 3322], for which, under setting [3], the negative logarithm of the EC50 (pEC50) is 8.00 to 11.00.

For `CC(C)(CNC(=O)C(=O)Nc1ccc(S(C)(=O)=O)cc1)CNC(=O)c1ccc(Nc2nc(NC3(c4ccc(Cl)cc4)CC3)nc(OCC(F)(F)F)n2)cc1` [Compound 3254], the pEC50 under setting [3] was 8.00 to 11.00. As for `CC(C)(C)c1ccc(NC(=O)C(=O)NCC[C@H](NC(=O)c2ccc(Nc3nc(NC4(c5ccc(Cl)cc5)CC4)nc(OCC(F)(F)F)n3)cc2)C(=O)O)cc1` [Compound 3549], the pEC50 under setting [3] was 8.00 to 11.00. On to `COC(=O)[C@H](CNC(=O)C(=O)N[C@H]1C[C@@H]2C[C@@H]([C@@H]1C)C2(C)C)NC(=O)c1ccc(Nc2nc(NC3(c4ccc(Cl)cc4)CC3)nc(OCC(F)(F)F)n2)cc1` [Compound 1066], for which the pEC50 under setting [2] is 8.00 to 11.00. Take `O=C(NC[C@H](NC(=O)c1ccc(Nc2nc(NC3(c4ccc(Cl)cc4)CC3)nc(OCC(F)(F)F)n2)cc1)C(=O)O)C(=O)Nc1ccc(-c2c[nH]c(N3CCOCC3)n2)cc1` [Compound 3284]: the pEC50 under setting [3] is 8.00 to 11.00.
